The structures appear in SMILES notation.

The target in the assay is T1, SIRT1 (Homo sapiens, UniProt Q96EB6).
T1 sequence (Q96EB6 1-747): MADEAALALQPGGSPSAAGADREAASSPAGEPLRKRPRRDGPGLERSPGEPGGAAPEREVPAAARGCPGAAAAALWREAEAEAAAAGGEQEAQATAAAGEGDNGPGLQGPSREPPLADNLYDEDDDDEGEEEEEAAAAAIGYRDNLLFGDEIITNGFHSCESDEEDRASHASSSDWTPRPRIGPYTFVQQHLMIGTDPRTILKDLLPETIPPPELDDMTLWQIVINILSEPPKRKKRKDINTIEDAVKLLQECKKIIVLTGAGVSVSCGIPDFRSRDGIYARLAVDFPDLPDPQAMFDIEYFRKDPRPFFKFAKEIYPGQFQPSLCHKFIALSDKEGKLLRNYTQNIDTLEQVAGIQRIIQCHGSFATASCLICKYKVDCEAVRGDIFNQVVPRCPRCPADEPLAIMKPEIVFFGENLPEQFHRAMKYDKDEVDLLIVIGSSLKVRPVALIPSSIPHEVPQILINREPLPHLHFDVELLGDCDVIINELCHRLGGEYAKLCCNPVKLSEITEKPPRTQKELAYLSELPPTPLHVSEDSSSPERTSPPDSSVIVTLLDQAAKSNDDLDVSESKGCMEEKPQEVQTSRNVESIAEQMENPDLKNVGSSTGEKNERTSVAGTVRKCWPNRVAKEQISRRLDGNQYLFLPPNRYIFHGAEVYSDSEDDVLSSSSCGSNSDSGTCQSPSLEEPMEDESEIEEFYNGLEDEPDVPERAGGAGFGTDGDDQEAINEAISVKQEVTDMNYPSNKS
In words: Mass spectrometry based assay to identify modulators of SIRT1 activity (deacetylation of p53-based acetylated peptide substrate). In kind it is biochemical. The settings on record: 10 nM SIRT1, 0.5 μM peptide substrate, 120 μM βNAD+, 25 minutes at 25° C.; for EC1.5: SIRT1 activation. The method, boiled down:
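Activation measured on His-tagged SIRT1 (10 nM, E. coli-expressed) deacetylating a 0.5 μM p53-derived acetyl-peptide with 120 μM βNAD^+ for 25 min at 25 °C, pH 8 Tris-acetate. After formic acid stop, mass spectrometry quantified acetylated versus deacetylated peptide, referenced to DMSO and nicotinamide controls. Reported as EC1.5 and maximum fold activation.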

In the case of `O=C(Nc1ccccc1-c1nc2cccnc2s1)c1cc(CN2CCCC2)nc(-c2ccccc2)n1` [Compound 11], the “FOLD ACT. (percent maximum fold activation)” value is listed as “A (Fold activation≧300%)”; the EC1.5 entry is “B (EC1.5>1 and ≦10 uM)”.
As to `CN(C)CCNc1cc(C(=O)Nc2ccccc2-c2nc3cccnc3s2)nc(-c2ccccc2)n1` [Compound 9], the “FOLD ACT. (percent maximum fold activation)” value was “A (Fold activation≧300%)” and the EC1.5 result is recorded as “A′ (EC1.5<250 nM)”.
For `CC(C)N1CCN(c2cc(C(=O)Nc3ccccc3-c3nc4cccnc4s3)nc(-c3ccccc3)c2)CC1` [Compound 123], in that order: “A (Fold activation≧300%)” and “A′ (EC1.5<250 nM)”.
Take `O=C(Nc1ccccc1-c1nc2cccnc2s1)c1cc(N2CCN3CCC[C@H]3C2)cc(-c2ccccc2)n1` [Compound 144]: the “FOLD ACT. (percent maximum fold activation)” value is “A (Fold activation≧300%)” and the EC1.5 entry is “A′ (EC1.5<250 nM)”.
For the compound `C[C@H](Nc1cc(C(=O)Nc2ccccc2-c2nc3cccnc3s2)nc(-c2ccccc2)n1)C(=O)O` [Compound 75], the “FOLD ACT. (percent maximum fold activation)” value is “A (Fold activation≧300%)”; the EC1.5 entry was “A (EC1.5≧250 nM and ≦1 uM)”.
For the compound `CCCCNc1cc(C(=O)Nc2ccccc2-c2nc3cccnc3s2)nc(-c2ccccc2)n1` [Compound 42], the “FOLD ACT. (percent maximum fold activation)” value is recorded as “C (Fold Activation<150%)” and the EC1.5 entry is reported as “C (EC1.5>10 uM)”.
For `CS(=O)(=O)CCNc1cc(C(=O)Nc2ccccc2-c2nc3cccnc3s2)nc(-c2ccccc2)n1` [Compound 46], the “FOLD ACT. (percent maximum fold activation)” value is “A (Fold activation≧300%)” and the EC1.5 result is on record as “A′ (EC1.5<250 nM)”.
The like results for `COCCN1CCN(c2cc(C(=O)Nc3ccccc3-c3nc4cccnc4s3)nc(-c3ccccc3)c2)CC1` [Compound 124] were, in that order, “A (Fold activation≧300%)” and “A′ (EC1.5<250 nM)”.
The like results for `O=C(Nc1ccccc1-c1nc2cccnc2s1)c1cc(NCCO)nc(-c2ccccc2)n1` [Compound 39] were, in that order, “A (Fold activation≧300%)” and “A′ (EC1.5<250 nM)”.
Take `O=C(Nc1ccccc1-c1nc2cccnc2s1)c1cc(NCc2cccnc2)nc(-c2ccccc2)n1` [Compound 58]: the “FOLD ACT. (percent maximum fold activation)” value is listed as “A (Fold activation≧300%)”; the EC1.5 entry is “A (EC1.5≧250 nM and ≦1 uM)”.
`O=C(Nc1ccccc1-c1nc2ccncc2s1)c1cc(N2CCNCC2)nc(-c2ccccc2)n1` [Compound 23]: the “FOLD ACT. (percent maximum fold activation)” value is “A (Fold activation≧300%)” and the EC1.5 result is “A′ (EC1.5<250 nM)”.
Take `C[C@@H]1CN(c2cc(C(=O)Nc3ccccc3-c3nc4cccnc4s3)nc(-c3ccccc3)n2)C[C@H](C)N1` [Compound 35]: the “FOLD ACT. (percent maximum fold activation)” value is on record as “A (Fold activation≧300%)” and the EC1.5 result was “A′ (EC1.5<250 nM)”.
For `O=C(Nc1ccccc1-c1nc2cccnc2s1)c1cc(NC[C@H](O)CO)nc(-c2ccccc2)n1` [Compound 105], in that order: “A (Fold activation≧300%)” and “A′ (EC1.5<250 nM)”.
For `O=C(Nc1ccccc1-c1nc2cccnc2s1)c1cc(NC2CCN(C3CC3)CC2)nc(-c2ccccc2)n1` [Compound 118], in that order: “A (Fold activation≧300%)” and “A′ (EC1.5<250 nM)”.
For `CCN(CC)CCNc1cc(C(=O)Nc2ccccc2-c2nc3cccnc3s2)nc(-c2ccccc2)n1` [Compound 41], in that order: “A (Fold activation≧300%)” and “A′ (EC1.5<250 nM)”.
In the case of `CC(C)(C)N1CCC(Nc2cc(C(=O)Nc3ccccc3-c3nc4cccnc4s3)nc(-c3ccccc3)n2)CC1` [Compound 125], the “FOLD ACT. (percent maximum fold activation)” value is “A (Fold activation≧300%)” and the EC1.5 entry is “A′ (EC1.5<250 nM)”.
The like results for `NCCOc1cc(C(=O)Nc2ccccc2-c2nc3cccnc3s2)nc(-c2ccccc2)n1` [Compound 152] were, in that order, “A (Fold activation≧300%)” and “A′ (EC1.5<250 nM)”.
Consider `O=C(Nc1ccccc1-c1nc2cccnc2s1)c1cc(NC2CCNCC2)nc(-c2ccccc2)n1` [Compound 49], for which the “FOLD ACT. (percent maximum fold activation)” value is given as “A (Fold activation≧300%)” and the EC1.5 result is listed as “A′ (EC1.5<250 nM)”.
For `O=C(Nc1ccccc1-c1nc2cccnc2s1)c1cc(N[C@H]2CCCNC2)nc(-c2ccccc2)n1` [Compound 85], the “FOLD ACT. (percent maximum fold activation)” value is “A (Fold activation≧300%)”; the EC1.5 entry was “A (EC1.5≧250 nM and ≦1 uM)”.
As to `CCN(CC)CCCOc1cc(C(=O)Nc2ccccc2-c2nc3cccnc3s2)nc(-c2ccccc2)n1` [Compound 93], the “FOLD ACT. (percent maximum fold activation)” value is reported as “A (Fold activation≧300%)”; the EC1.5 entry is “A (EC1.5≧250 nM and ≦1 uM)”.
Consider `O=C(Nc1ccccc1-c1nc2cccnc2s1)c1cc(NCc2ccccc2)nc(-c2ccccc2)n1` [Compound 54], for which the “FOLD ACT. (percent maximum fold activation)” value is listed as “C (Fold Activation<150%)” and the EC1.5 result was “C (EC1.5>10 uM)”.
For `O=C(Nc1ccccc1-c1nc2cccnc2s1)c1cc(NCCN2CCNCC2)nc(-c2ccccc2)n1` [Compound 48], in that order: “A (Fold activation≧300%)” and “A′ (EC1.5<250 nM)”.
As to `COCCN(CCOC)c1cc(C(=O)Nc2ccccc2-c2nc3cccnc3s2)nc(-c2ccccc2)n1` [Compound 68], the “FOLD ACT. (percent maximum fold activation)” value is given as “A (Fold activation≧300%)” and the EC1.5 entry is reported as “A′ (EC1.5<250 nM)”.
As for `O=C(Nc1ccccc1-c1nc2cccnc2s1)c1cc(N2CCN3CCC[C@H]3C2)nc(-c2ccccc2)n1` [Compound 120], the “FOLD ACT. (percent maximum fold activation)” value is “A (Fold activation≧300%)”; the EC1.5 entry is “A (EC1.5≧250 nM and ≦1 uM)”.
On to `Cc1nc(CCNc2cc(C(=O)Nc3ccccc3-c3nc4cccnc4s3)nc(-c3ccccc3)n2)cs1` [Compound 53], for which the “FOLD ACT. (percent maximum fold activation)” value was “B (Fold Activation≧150% and <300%)”; the EC1.5 result is “A (EC1.5≧250 nM and ≦1 uM)”.
On to `CCN(CC)CCOc1cc(C(=O)Nc2ccccc2-c2nc3cccnc3s2)nc(-c2ccccc2)n1` [Compound 90], for which the “FOLD ACT. (percent maximum fold activation)” value was “A (Fold activation≧300%)”; the EC1.5 result is “A (EC1.5≧250 nM and ≦1 uM)”.
On to `CN(C)CCNc1cc(C(=O)Nc2ccccc2-c2nc3cccnc3s2)nc(-c2ccccc2)c1` [Compound 110], for which the “FOLD ACT. (percent maximum fold activation)” value is given as “A (Fold activation≧300%)” and the EC1.5 entry was “A′ (EC1.5<250 nM)”.
`O=C(Nc1ccccc1-c1nc2cccnc2s1)c1cc(CN2CCOCC2)nc(-c2ccccc2)n1` [Compound 10]: the “FOLD ACT. (percent maximum fold activation)” value was “A (Fold activation≧300%)”; the EC1.5 entry was “A (EC1.5≧250 nM and ≦1 uM)”.
Take `O=C(Nc1ccccc1-c1nc2cccnc2s1)c1cc(NC2CCN(c3ccccn3)CC2)nc(-c2ccccc2)n1` [Compound 115]: the “FOLD ACT. (percent maximum fold activation)” value was “C (Fold Activation<150%)” and the EC1.5 result was “C (EC1.5>10 uM)”.
With `CN(C)CCCOc1cc(C(=O)Nc2ccccc2-c2nc3cccnc3s2)nc(-c2ccccc2)n1` [Compound 153], the “FOLD ACT. (percent maximum fold activation)” value was “A (Fold activation≧300%)”; the EC1.5 entry is “A (EC1.5≧250 nM and ≦1 uM)”.
Take `CN(C)c1cc(C(=O)Nc2ccccc2-c2nc3cccnc3s2)nc(-c2ccccc2)n1` [Compound 38]: the “FOLD ACT. (percent maximum fold activation)” value was “B (Fold Activation≧150% and <300%)”; the EC1.5 entry is “B (EC1.5>1 and ≦10 uM)”.
With `COCCN1CCN(CCOc2cc(C(=O)Nc3ccccc3-c3nc4cccnc4s3)nc(-c3ccccc3)c2)CC1` [Compound 12], the “FOLD ACT. (percent maximum fold activation)” value is “A (Fold activation≧300%)” and the EC1.5 result is “A′ (EC1.5<250 nM)”.
For `NCCCNc1cc(C(=O)Nc2ccccc2-c2nc3cccnc3s2)nc(-c2ccccc2)n1` [Compound 84], in that order: “A (Fold activation≧300%)” and “A′ (EC1.5<250 nM)”.
Consider `Cc1cccc(-c2nc(C(=O)Nc3ccccc3-c3nc4cccnc4s3)cc(N3CCOCC3)n2)c1` [Compound 148], for which the “FOLD ACT. (percent maximum fold activation)” value is “B (Fold Activation≧150% and <300%)”; the EC1.5 entry was “A (EC1.5≧250 nM and ≦1 uM)”.
`CC(C)N1CCC(Nc2cc(C(=O)Nc3ccccc3-c3nc4cccnc4s3)nc(-c3ccccc3)n2)CC1` [Compound 114]: the “FOLD ACT. (percent maximum fold activation)” value is on record as “A (Fold activation≧300%)” and the EC1.5 result is “A′ (EC1.5<250 nM)”.
Regarding `O=C(Nc1ccccc1-c1nc2ccncc2s1)c1cc(N2CCOCC2)nc(-c2ccccc2)n1` [Compound 22], the “FOLD ACT. (percent maximum fold activation)” value is recorded as “A (Fold activation≧300%)”; the EC1.5 entry is “A (EC1.5≧250 nM and ≦1 uM)”.

The record behind these values is US20110009381A1, “SOLUBILIZED THIAZOLOPYRIDINES” (Sirtis Pharmaceuticals, Inc., priority 2007, published 2011).
